Results as given in article PMC13626384 (Journal of medicinal chemistry, 2025).
“Also recorded” adds a separate entry of the source. Like-named read-outs stand apart in the source and are kept apart here.

Key:
Plasma stability = type: in vitro ADME; settings: for remaining at 2 h / remaining at 5 h: mouse, plasma, Plasma Stability % remaining; for Plasma Stability % remaining: mouse plasma
[1] = Liver microsomal stability; settings: mouse liver microsomes
H460 cell line = assay: Cytotoxicity against H460 cells; type: cell-based
in vitro = settings: mouse liver microsomes
SF188 cell line = assay: Cytotoxicity against SF188 cells; type: cell-based, human
[2] = Caco-2 cell permeability and efflux; type: in vitro ADME, human; settings: human
Caco-2 cells = assay: Caco-2 cell permeability and efflux; type: in vitro ADME, human; settings: for Efflux Ratio: Caco-2; for % Recovery (A-B): Caco-2, A-B direction; for % Recovery (B-A): Caco-2, B-A direction; for Pe (A-B): Caco-2, apical to basolateral; for Pe (B-A): Caco-2, basolateral to apical
[3] = In vivo pharmacokinetics, plasma and brain; design: species or system Male C57BL/6 mice; settings: mice
[4] = molecular target: human immunoproteasome (i20S) β1 (Homo sapiens, UniProt P28065+P40306); assay: Proteasome subunit inhibition, i20S β1; type: biochemical
[5] = molecular target: human immunoproteasome (i20S) β5 (Homo sapiens, UniProt P20618+P28062); assay: Proteasome subunit inhibition, i20S β5; type: biochemical; settings: read-out: i20S β5 IC50 ± SD; read 60 to 90 minutes after start
mice = assay: Toxicity observation in the PK study; type: in vivo; settings: 1 mg/kg i.v., 1 mg/kg
[6] = molecular target: human immunoproteasome (i20S) β2 (Homo sapiens, UniProt P40306+P49720); assay: Proteasome subunit inhibition, i20S β2; type: biochemical
D283-med cell line = assay: Cytotoxicity against D283-med cells; type: cell-based, human; settings: read-out: D283-med IC50
[7] = PAMPA-BBB permeability assay; settings: PAMPA-BBB
[8] = test system: human foreskin fibroblasts (HFF-1) cell line; assay: Cytotoxicity against HFF-1 cells; type: cell-based; settings: read-out: HFF-1 IC50; non-cancerous fibroblasts
[9] = molecular target: human constitutive proteasome (c20S) β1 (Homo sapiens, UniProt P28072+Q99436); assay: Proteasome subunit inhibition, c20S β1; type: biochemical
[10] = read-out: H460 IC50, non-small cell lung cancer cell line
[11] = Homo sapiens, SF-188, read-out: SF188 IC50, glioblastoma cell line
[12] = read-out: SF188 IC50, glioblastoma cell line
[13] = read-out: i20S β1 IC50 ± SD, read 60 to 90 minutes after start
[14] = read-out: i20S β2 IC50 ± SD, read 60 to 90 minutes after start
[15] = 10 mg/kg i.v., compound by itself, 30 minutes
[16] = 10 mg/kg i.v., pretreated with tariquidar, 0.5 h
[17] = 10 mg/kg i.v., with and without tariquidar

Compound | remaining at 2 h (Plasma stability; after 2 hr) | Microsomal Stability Clearance Category [1] | half-life (in vitro) | IC50 (H460 cell line; [10]) | IC50 (SF188 cell line; [12]) | Plasma Stability % remaining (Plasma stability; after 2 hr) | Plasma Stability % remaining (Plasma stability; after 5 hr) | Microsomal Stability mCLint [1] | Efflux Ratio (Caco-2 cells) | % Recovery (A-B) (Caco-2 cells) | % Recovery (B-A) (Caco-2 cells) | Pe (A-B) (Caco-2 cells) | Pe (B-A) (Caco-2 cells) | IC50 [4, 13] | IC50 [5] | IC50 [6, 14] | IC50 (D283-med cell line; medulloblastoma cell line) | % Recovery [7] | Mean Permeability [7] | Pe (effective permeability) [7] | other results
CC(C)C[C@H](NC(=O)[C@@H]1Cc2c(F)c(F)c(c(F)c2F)Sc2cccc(c2)CC(=O)N[C@@H](C(C)C)C(=O)N1)C(=O)[C@@]1(C)CO1 [Compound 10, (5S,8S)-3^2,3^3,3^5,3^6-Tetrafluoro-8-isopropyl-N-((S)-4-methyl-1-((R)-2-methyloxiran-2-yl)-1-oxopentan-2-yl)-7,10-dioxo-2-thia-6,9-diaza-1(1,3),3(1,4)-dibenzenacycloundecaphane-5-carboxamide] |  | High |  | 2590 nM | 123 ± 8 nM | 98 after 2 hr % | more than 75% | 202 µL/min/mg | 1.4 | 83% | 75% | 25.1 10^−6 cm/sec | 34.4 10^−6 cm/sec | 163 ± 14.9 nM | 532 ± 56.9 nM | 464 ± 50.1 nM | 17 ± 7 nM | 49% | 3.48 10^−6 cm/sec | around 4 10^−6 cm s^−1 | Mean B/P ratio ([3]; 1 mg/kg i.v., 1.0 h): 0.78; Mean Brain Con ([3]; 1 mg/kg i.v., 1.0 h): 12.0 ng/g; Mean Plasma Conc. ([3]; 1 mg/kg i.v., 1.0 h): 16.8 ng/mL; Mean Plasma Conc. ([3]; 1 mg/kg i.v., 4.0 h): 5.4 ng/mL; Mean Brain Con ([3]; 1 mg/kg i.v., 4.0 h, LLOQ 2.00 ng/mL, 1 mg/kg): below the limit of quantification and BLQ; Plasma Cmax ([3]; 1 mg/kg i.v., earliest time point): 423 ng/mL; Signs of toxicity (mice): no signs of toxicity were observed; also recorded: lack of toxicity
C[C@@]12OC(=O)[C@]1([C@@H](O)[C@@H]1C=CCCC1)NC(=O)[C@@H]2CCCl [Marizomib, reference compound] | 20% | High | < 5 min |  |  |  |  |  |  |  |  |  |  |  |  |  |  |  |  |  | IC50 (H460 cell line; Homo sapiens, NCI-H460, read-out: H460 IC50): 73 ± 6 nM; IC50 (SF188 cell line; Homo sapiens, SF-188, read-out: SF188 IC50): 22 ± 4 nM; IC50 [4]: 40.5 ± 1.7 nM; IC50 [9]: 336 ± 27.2 nM; IC50 [6]: 207 ± 22.3 nM; IC50 (D283-med cell line; Homo sapiens, D283 Med): 70 ± 3 nM; recovery ([7]; PAMPA, % Recovery): 2%; Papp ([7]; PAMPA, Mean Permeability): 0.13 ×10⁻⁶ cm/s
S)-N-((S)-4-Methyl-1-((R)-2-methyloxiran-2-yl)-1-oxopentan-2-yl)-8,11-dioxo-2-oxa-9,12-diaza-1(1,4)-benzenacyclotetradecaphane-13-carboxamide [Compound 35] |  | Low |  | 853 ± 90 nM | 806 ± 388 nM | 64 after 2 hr % | more than 75% | 10 µL/min/mg | 2.5 | 98% | 93% | 18.6 10^−6 cm/sec | 46.5 10^−6 cm/sec | 78.2 ± 5.3 nM | 1900 ± 587 nM | 1750 ± 240 nM | 332 ± 12 nM | 100% | 6.81 10^−6 cm/sec | 6.8 10^−6 cm s^−1 | Mean B/P ratio ([3]; 10 mg/kg i.v., alone, 1.0 h): 0.08; Mean Brain Con ([3]; 10 mg/kg i.v., alone, 1.0 h): 26.3 ng/g; Mean Plasma Conc. ([3]; 10 mg/kg i.v., alone, 1.0 h): 330 ng/mL; Mean Plasma Conc. ([3]; 10 mg/kg i.v., alone, 2.0 h): 5.3 ng/mL; Mean Brain Con ([3]; 10 mg/kg i.v., alone, 2.0 h, LLOQ 2.00 ng/mL, 10 mg/kg): below the quantification limit and BLQ; Brain concentration [3, 15]: 26 ng/mL; Brain-to-plasma ratio [3, 15]: 0.08; Mean Brain Con ([3]; 10 mg/kg i.v., pretreated with tariquidar (13 mg/kg, i.p.), 0.5 h): 137.0 ng/g; Mean B/P ratio [3, 16]: 0.80; Mean Plasma Conc. [3, 16]: 165.7 ng/mL; Mean Plasma Conc. ([3]; 10 mg/kg i.v., pretreated with tariquidar, 2.0 h): 5.0 ng/mL; Mean Brain Con ([3]; 10 mg/kg i.v., pretreated with tariquidar, 2.0 h, LLOQ 2.00 ng/mL): below the quantification limit and BLQ; Brain concentration ([3]; 10 mg/kg i.v., tariquidar group, 30 minutes): 137 ng/mL; Plasma Cmax (average) [3, 17]: 2453 ng/mL; Plasma half-life [3, 17]: ~ 0.25 hours

The next lines start with results.

remaining at 2 h (Plasma stability; after 2 hr) | Microsomal Stability Clearance Category [1] | half-life (in vitro) | Compound | IC50 (H460 cell line; [10]) | IC50 (SF188 cell line; [12]) | Plasma Stability % remaining (Plasma stability; after 2 hr) | Plasma Stability % remaining (Plasma stability; after 5 hr) | Microsomal Stability mCLint [1] | Efflux Ratio (Caco-2 cells) | % Recovery (A-B) (Caco-2 cells) | % Recovery (B-A) (Caco-2 cells) | Pe (A-B) (Caco-2 cells) | Pe (B-A) (Caco-2 cells) | IC50 [4, 13] | IC50 [5] | IC50 [6, 14] | IC50 (D283-med cell line; medulloblastoma cell line) | % Recovery [7] | Mean Permeability [7] | Pe (effective permeability) [7] | other results
> 99% | High | < 5 min | CC(C)C[C@H](NC(=O)C(CSc1c(F)c(F)c(F)c(F)c1F)NC(=O)[C@@H](NC(=O)CCc1ccccc1)C(C)C)C(=O)[C@@]1(C)CO1 (stereo in doubt) [Compound 2, (S)-3-Methyl-N-((S)-1-(((S)-4-methyl-1-((R)-2-methyloxiran-2-yl)-1-oxopentan-2-yl)amino)-1-oxo-3-((perfluorophenyl)thio)propan-2-yl)-2-(3-phenylpropanamido)butanamide] | 632 ± 167 nM | 132 ± 22 nM |  |  |  |  |  |  |  |  |  |  |  |  |  |  |  | remaining at 5 h (Plasma stability; after 5 hr): > 75%; IC50 (SF188 cell line; [11]): < 200 nM
> 99% | High | < 5 min | CC(C)C[C@H](NC(=O)C(CSc1c(F)c(F)c(F)c(F)c1F)NC(=O)[C@@H](NC(=O)c1cc(Cl)ccc1Cl)C(C)C)C(=O)[C@@]1(C)CO1 (stereo in doubt) [Compound 4, 2,5-Dichloro-N-((S)-3-methyl-1-(((S)-1-(((S)-4-methyl-1-((R)-2-methyloxiran-2-yl)-1-oxopentan-2-yl)amino)-1-oxo-3-((perfluorophenyl)thio)propan-2-yl)amino)-1-oxobutan-2-yl)benzamide] |  | 192 ± 70 nM |  |  |  |  |  |  |  |  |  |  |  |  |  |  |  | remaining at 5 h (Plasma stability; after 5 hr): > 75%; Papp B→A ([2]; Caco-2): 1.3 ×10⁻⁶ cm/s; recovery ([2]; Caco-2, % Recovery (A-B), Caco-2, A-B direction): 27%; recovery ([2]; Caco-2, % Recovery (B-A), Caco-2, B-A direction): 42%; IC50 (SF188 cell line; [11]): < 200 nM
 | High |  | CC(C)C[C@H](NC(=O)[C@@H]1Cc2c(F)c(F)c(c(F)c2F)Sc2cccc(c2)CC(=O)NC(C)(C)C(=O)N1)C(=O)[C@@]1(C)CO1 [Compound 31, (S)-3^2,3^3,3^5,3^6-Tetrafluoro-8,8-dimethyl-N-((S)-4-methyl-1-((R)-2-methyloxiran-2-yl)-1-oxopentan-2-yl)-7,10-dioxo-2-thia-6,9-diaza-1(1,3),3(1,4)-dibenzenacycloundecaphane-5-carboxamide] | 175 ± 16 nM | 24 ± 9 nM | 81 after 2 hr % |  | 182 µL/min/mg | 17.6 | 94% | 73% | 3.6 10^−6 cm/sec | 63.0 10^−6 cm/sec | 207 ± 14.3 nM | 763 ± 199 nM | 1060 ± 121 nM | 57 ± 14 nM | 64% | 3.70 10^−6 cm/sec |  | Microsomal Stability t1/2 [1]: 8 min; IC50 [8]: 122 ± 14 nM
 | Medium |  | CC(C)C[C@H](NC(=O)[C@@H]1CSCCCCCCCCCC(=O)N[C@@H](C(C)C)C(=O)N1)C(=O)[C@@]1(C)CO1 [Compound 39] | 79 ± 21 nM | 20 ± 3 nM | 87 after 2 hr % | more than 75% | 33 µL/min/mg | 1.5 | 67% | 74% | 9.8 10^−6 cm/sec | 14.6 10^−6 cm/sec | 99 ± 8.4 nM | 63.9 ± 7.2 nM | 45.3 ± 3.1 nM | 14.8 ± 2.3 nM | 44% | 3.43 10^−6 cm/sec | around 4 10^−6 cm s^−1 | Microsomal Stability t1/2 [1]: 42 min
